8 compounds from PubChem BioAssay (NCI) can be followed below.

Some test systems named below: SF-539 CNS; SNB-75 CNS; OVCAR-8 ovarian; SK-MEL-5 melanoma; A498 renal; SK-MEL-2 melanoma; SK-MEL-28 melanoma; BT-549 breast; MALME-3M melanoma; EKVX NSCLC.
Common to all, as to test: inhibition of tumour cell growth, NCI panel, 48 h

SMILES strings stand for the structures.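 Method: 48-hour compound exposure of cells in 96-well plates, five concentrations, linear interpolation of endpoints. GI50 marks 50% less growth. TGI marks complete inhibition of growth.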

As to `Oc1ccc(/C=C/c2cc(O)cc3c2C(c2cc(O)cc(O)c2)C(c2ccc(O)c(O)c2)O3)cc1` (stereo not drawn), the TGI in the test with SF-539 CNS is above 100 µM; in the test on SNB-75 CNS it was above 100 µM; with OVCAR-8 ovarian, 68.2 µM; with SK-MEL-5 melanoma, 34.7 µM; with A498 renal it was above 100 µM; in the test on SK-MEL-2 melanoma, 74.8 µM. Also, the TGI with SK-MEL-28 melanoma was above 100 µM; in the test on BT-549 breast, 64.4 µM; with MALME-3M melanoma, 80.6 µM; in the test on EKVX NSCLC, above 100 µM.

Take `CC(C)(C)c1cc(C(=O)/C=C/c2ccc(C(=O)O)cc2)cc(C(C)(C)C)c1`: the TGI in the test with SF-539 CNS was found to be 2.97 µM; in the test with SNB-75 CNS, 15 µM; in the test with OVCAR-8 ovarian, 7.13 µM; in the test on SK-MEL-5 melanoma, 14.7 µM; in the test with A498 renal, 3.52 µM; in the test on SK-MEL-2 melanoma it was 12.7 µM. Further, the TGI in the test with SK-MEL-28 melanoma is 6.83 µM; with BT-549 breast it was 6.61 µM; in the test on MALME-3M melanoma it was 7.99 µM; in the test with EKVX NSCLC it was 16.9 µM.

Consider `COc1cc(C(=O)O[C@H](C(N)=O)[C@]2(C)CO2)c2cccc(C)c2c1`, for which the GI50 was below 0.0121 µM with SF-539 CNS; 0.933 µM in the test on SNB-75 CNS; below 0.01 µM in the test on OVCAR-8 ovarian; below 0.0158 µM with SK-MEL-5 melanoma; 4.31 µM in the test on A498 renal; below 0.01 µM in the test with SK-MEL-2 melanoma. Also, the GI50 with SK-MEL-28 melanoma is 0.0744 µM; in the test on BT-549 breast it was below 0.0418 µM; in the test with MALME-3M melanoma it was 0.13 µM; in the test on EKVX NSCLC, 0.35 µM. The TGI with SF-539 CNS is below 0.0465 µM; with SNB-75 CNS it was 4.13 µM; in the test with OVCAR-8 ovarian it was 0.438 µM; with SK-MEL-5 melanoma, 0.0522 µM; in the test with A498 renal it was 15.4 µM; in the test on SK-MEL-2 melanoma, 0.0478 µM. Moreover, the TGI in the test on SK-MEL-28 melanoma came to 1.7 µM; in the test on BT-549 breast it was 0.655 µM; in the test with MALME-3M melanoma it was 0.646 µM; in the test with EKVX NSCLC, 4.61 µM.

As for `Clc1nc(Cl)c2ncn(Cc3ccccc3Cn3cnc4c(Cl)nc(Cl)nc43)c2n1`, the GI50 in the test with SF-539 CNS is 0.16 µM; in the test with SNB-75 CNS it was 3.9 µM; with OVCAR-8 ovarian it was 2.9 µM; in the test with SK-MEL-5 melanoma, 1.81 µM; in the test with A498 renal it was 11.2 µM; with SK-MEL-2 melanoma, 8.96 µM. Also, the GI50 was 2.96 µM in the test with SK-MEL-28 melanoma, 0.165 µM with BT-549 breast, 0.211 µM with MALME-3M melanoma and 1.36 µM in the test with EKVX NSCLC. The TGI in the test with SF-539 CNS was determined as 0.719 µM; in the test on SNB-75 CNS it was 16.4 µM; in the test on OVCAR-8 ovarian it was 9.12 µM; in the test on SK-MEL-5 melanoma, 4.13 µM; in the test on A498 renal it was 27.7 µM; in the test with SK-MEL-2 melanoma it was 27.8 µM. The TGI is 11.8 µM in the test on SK-MEL-28 melanoma, 1.52 µM in the test on BT-549 breast, 6.18 µM in the test on MALME-3M melanoma and 3.02 µM with EKVX NSCLC.

On to `Cc1sc2c(c1C)C(c1ccc(Cl)cc1)=N[C@@H](CC(=O)Nc1ccc(OCCOCCOCCOCCNc3cccc4c3C(=O)N(C3CCC(=O)NC3=O)C4=O)cc1)c1nnc(C)n1-2` (stereo partly drawn), for which the GI50 with SF-539 CNS is 0.242 µM; with SNB-75 CNS, below 0.01 µM; in the test on OVCAR-8 ovarian, below 0.0193 µM; in the test with SK-MEL-5 melanoma, 0.195 µM; in the test with A498 renal, 0.013 µM; with SK-MEL-2 melanoma, 0.347 µM. Also, the GI50 in the test on SK-MEL-28 melanoma was 16.8 µM; in the test with BT-549 breast it was below 0.0228 µM; with MALME-3M melanoma, above 100 µM; with EKVX NSCLC, 0.409 µM. In addition, the TGI with SF-539 CNS is above 100 µM; in the test with OVCAR-8 ovarian it was above 100 µM; in the test with SK-MEL-5 melanoma, 27.5 µM; in the test on A498 renal, 0.0962 µM; with SK-MEL-2 melanoma it was above 100 µM; in the test on SK-MEL-28 melanoma, above 100 µM. Further, the TGI in the test with BT-549 breast, in the test with MALME-3M melanoma and with EKVX NSCLC was above 100 µM each time.

`O=C(NNc1cnccn1)c1nc2cc(F)ccc2n2cccc12`: the GI50 with SF-539 CNS was 0.847 µM; in the test on SNB-75 CNS, 1.31 µM; with OVCAR-8 ovarian, 0.429 µM; in the test on SK-MEL-5 melanoma, 1.07 µM; in the test with A498 renal, 0.575 µM; with SK-MEL-2 melanoma, 1.61 µM. In addition, the GI50 in the test on SK-MEL-28 melanoma is 1.08 µM; in the test with BT-549 breast, 2.24 µM; with MALME-3M melanoma, 1.06 µM; in the test on EKVX NSCLC, 0.387 µM. Moreover, the TGI with SF-539 CNS is above 31.6 µM; in the test on SNB-75 CNS, above 30.4 µM; in the test with OVCAR-8 ovarian it was above 100 µM; with SK-MEL-5 melanoma, 3.13 µM; in the test on A498 renal, 2.67 µM; in the test on SK-MEL-2 melanoma, above 100 µM. Besides, the TGI was above 100 µM in the test with SK-MEL-28 melanoma, above 62.8 µM in the test on BT-549 breast, above 100 µM with MALME-3M melanoma and above 100 µM in the test on EKVX NSCLC.

Regarding `O=C1c2ccccc2C(=O)c2c(NCCN=Cc3ccccc3O)cccc21`, the GI50 is 2.96 µM with SF-539 CNS; 2.33 µM with SNB-75 CNS; 4.93 µM with OVCAR-8 ovarian; 1.51 µM in the test on SK-MEL-5 melanoma; 1.87 µM in the test on A498 renal; 4.42 µM with SK-MEL-2 melanoma. The GI50 was 3.21 µM in the test with SK-MEL-28 melanoma, 2.81 µM in the test on BT-549 breast, 1.55 µM with MALME-3M melanoma and 1.79 µM with EKVX NSCLC. For the same compound, the TGI in the test on SF-539 CNS was 13.3 µM; in the test with SNB-75 CNS, 7.6 µM; with OVCAR-8 ovarian, 22.1 µM; in the test with SK-MEL-5 melanoma, 5.2 µM; in the test on A498 renal, 6.67 µM; in the test on SK-MEL-2 melanoma it was 11.3 µM. For the same compound, the TGI worked out at 10.4 µM in the test with SK-MEL-28 melanoma, 8.51 µM in the test with BT-549 breast, 3.84 µM with MALME-3M melanoma and 5.44 µM in the test with EKVX NSCLC.

Take `COc1cc2c3c(n(CCCN(C)CCO)c(=O)c2cc1OC)-c1cc2c(cc1C3=O)OCO2`: the GI50 in the test on SF-539 CNS was 2.89 µM; in the test with OVCAR-8 ovarian it was 13.9 µM; in the test with SK-MEL-5 melanoma it was 4.77 µM; in the test on A498 renal it was 8.19 µM; in the test on SK-MEL-2 melanoma, above 100 µM; in the test with SK-MEL-28 melanoma, above 80.2 µM. Also, the GI50 in the test with BT-549 breast was 3.13 µM; with MALME-3M melanoma, above 55.7 µM; with EKVX NSCLC, above 44.4 µM. The TGI with SF-539 CNS is above 33.5 µM; in the test on SNB-75 CNS, above 58.5 µM; in the test on OVCAR-8 ovarian, above 78.8 µM; with SK-MEL-5 melanoma, 33.5 µM; in the test with A498 renal it was above 40.2 µM; with SK-MEL-2 melanoma, above 100 µM. Further, the TGI is above 100 µM with SK-MEL-28 melanoma, above 22.3 µM in the test with BT-549 breast, above 100 µM with MALME-3M melanoma and above 100 µM in the test on EKVX NSCLC.
